Like-named read-outs stand apart in the source and are kept apart here.
Tests used:
[1] = target: T1, baculovirus-expressed ALK (Homo sapiens, UniProt Q9UM73); assay: ALK Kinase Assay (ELISA-type, time-resolved fluorescence); format: biochemical
T1 construct: host or cells: baculovirus expression system
Summary of the method: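 Wells were coated with phospholipase C-γ at 10 μg/mL in Tris-buffered saline. Adding 30 ng/ml enzyme started the reaction, which ran at 37° C for 15 minutes before Eu-N1 PT66 antibody detection. Percent inhibition versus log10 concentration gave IC50 by variable-slope fit.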

[2] = target: T2, c-Met (cytoplasmic domain) (Homo sapiens, UniProt P08581); assay: c-Met Kinase Assay (same methods as for ALK, with modifications); format: biochemical
T2 construct: 10 ng/mL c-Met (cytoplasmic domain, Invitrogen Corporation #PV3143); purchased Invitrogen Corporation PV3143
T2 sequence (P08581 956-1390 limits assumed): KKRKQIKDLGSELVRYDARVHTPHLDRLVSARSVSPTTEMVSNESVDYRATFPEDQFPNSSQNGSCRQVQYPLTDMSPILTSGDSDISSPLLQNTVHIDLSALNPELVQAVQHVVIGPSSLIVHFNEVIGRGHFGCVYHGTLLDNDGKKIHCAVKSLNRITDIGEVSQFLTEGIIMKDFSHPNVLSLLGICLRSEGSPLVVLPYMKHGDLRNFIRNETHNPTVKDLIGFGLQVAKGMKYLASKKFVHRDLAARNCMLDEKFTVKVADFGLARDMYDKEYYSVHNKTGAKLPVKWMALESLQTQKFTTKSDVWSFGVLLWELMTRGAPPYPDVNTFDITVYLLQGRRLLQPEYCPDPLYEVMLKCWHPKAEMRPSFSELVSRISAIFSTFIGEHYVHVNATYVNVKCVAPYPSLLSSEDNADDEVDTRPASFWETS
Summary of the method: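 IC50 values were fitted by variable-slope sigmoidal regression of percent inhibition against log compound concentration. Phosphorylation was read with Eu-N1 PT66 antibody after a 15 min, 37 °C reaction. The reaction was initiated with 10 ng/mL c-Met cytoplasmic domain on wells coated with 10 μg/mL PLC-γ in TBS.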

[3] = ALK kinase inhibition, 1 μM ATP (Km level), read-out: ALK Activity
[4] = c-Met kinase inhibition, 1 μM ATP (Km level), read-out: cMet Activity
[5] = 1 μM ATP (Km level), read-out: ALK Activity (ALK Kinase Inhibition, IC50)
[6] = 1 μM ATP (Km level), read-out: cMet Activity (c-Met Kinase Inhibition, IC50)
[7] = 1 μM ATP (Km level), 30 ng/ml ALK, 37° C., 15 minutes, read-out: ALK Activity (ALK kinase inhibition, IC50 class)
[8] = 1 μM ATP (Km level), 10 ng/mL c-Met, read-out: cMet Activity (c-Met kinase inhibition, IC50 class)
[9] = ALK kinase inhibition, 1 μM ATP, read-out: ALK Activity
[10] = c-Met kinase inhibition, 1 μM ATP, read-out: cMet Activity

T1 sequence (Q9UM73 19-1620): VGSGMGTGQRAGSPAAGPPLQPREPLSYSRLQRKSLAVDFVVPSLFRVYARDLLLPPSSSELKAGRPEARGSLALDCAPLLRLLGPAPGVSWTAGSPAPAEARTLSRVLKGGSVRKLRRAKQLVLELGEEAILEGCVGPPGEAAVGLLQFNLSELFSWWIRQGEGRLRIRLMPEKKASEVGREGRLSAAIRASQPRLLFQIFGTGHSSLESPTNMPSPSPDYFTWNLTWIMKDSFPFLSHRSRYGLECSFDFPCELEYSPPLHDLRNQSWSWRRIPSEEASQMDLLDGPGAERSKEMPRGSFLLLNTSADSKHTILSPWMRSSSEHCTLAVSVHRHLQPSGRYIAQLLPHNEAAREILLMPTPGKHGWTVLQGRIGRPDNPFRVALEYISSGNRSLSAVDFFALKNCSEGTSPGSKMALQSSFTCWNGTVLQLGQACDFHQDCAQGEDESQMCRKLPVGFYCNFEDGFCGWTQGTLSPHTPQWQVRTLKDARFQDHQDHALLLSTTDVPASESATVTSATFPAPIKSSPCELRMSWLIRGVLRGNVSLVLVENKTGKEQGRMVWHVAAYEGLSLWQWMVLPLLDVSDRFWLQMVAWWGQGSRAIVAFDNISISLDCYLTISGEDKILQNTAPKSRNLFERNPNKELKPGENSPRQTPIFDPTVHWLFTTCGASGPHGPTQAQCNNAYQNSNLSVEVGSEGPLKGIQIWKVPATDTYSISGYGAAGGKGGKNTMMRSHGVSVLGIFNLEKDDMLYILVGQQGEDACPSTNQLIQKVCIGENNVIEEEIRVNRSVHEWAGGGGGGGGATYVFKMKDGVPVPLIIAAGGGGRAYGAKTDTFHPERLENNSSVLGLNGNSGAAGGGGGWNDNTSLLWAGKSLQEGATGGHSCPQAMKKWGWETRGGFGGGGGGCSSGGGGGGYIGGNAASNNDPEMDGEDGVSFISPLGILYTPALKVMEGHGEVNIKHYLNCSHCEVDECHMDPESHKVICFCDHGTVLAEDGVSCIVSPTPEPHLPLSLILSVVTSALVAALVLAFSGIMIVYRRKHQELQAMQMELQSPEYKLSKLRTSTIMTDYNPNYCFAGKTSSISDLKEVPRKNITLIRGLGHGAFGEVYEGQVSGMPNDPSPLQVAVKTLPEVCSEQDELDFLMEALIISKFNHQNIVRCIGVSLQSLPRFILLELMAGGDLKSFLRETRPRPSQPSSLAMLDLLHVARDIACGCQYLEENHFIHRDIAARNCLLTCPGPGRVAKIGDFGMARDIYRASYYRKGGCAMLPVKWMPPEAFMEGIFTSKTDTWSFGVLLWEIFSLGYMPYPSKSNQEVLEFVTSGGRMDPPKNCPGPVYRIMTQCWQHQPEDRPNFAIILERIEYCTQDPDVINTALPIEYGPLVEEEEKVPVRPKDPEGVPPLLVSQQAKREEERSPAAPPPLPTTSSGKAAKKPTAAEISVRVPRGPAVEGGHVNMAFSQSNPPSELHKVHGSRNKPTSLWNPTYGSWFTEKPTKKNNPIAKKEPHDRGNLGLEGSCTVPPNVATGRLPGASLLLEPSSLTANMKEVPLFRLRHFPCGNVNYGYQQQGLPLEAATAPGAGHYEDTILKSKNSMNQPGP

Row | Compound | IC50 [1, 3] | IC50 [2, 4] | IC50 [1, 7] | IC50 [2, 8] | further results
1 | CCN1C(=O)CCC(C)(C)c2cc(Nc3ncc(Cl)c(N[C@@H]4CCCC[C@H]4NS(C)(=O)=O)n3)ccc21 [Example 388, N-{(1R,2R)-2-[5-Chloro-2-(1-ethyl-5,5-dimethyl-2-oxo-2,3,4,5-tetrahydro-1H-benzo[b]azepin-7-ylamino)-pyrimidin-4-ylamino]-cyclohexyl}-methanesulfonamide] | < 100 nM | 1000 to 10000 nM | – | – | –
2 | COc1cc2c(cc1Nc1ncc(Cl)c(Nc3ccc(Cl)cc3S(=O)(=O)N(C)C)n1)CCN(CC(=O)N1CCN(C)CC1)CC2 [Example 842, 5-Chloro-2-(5-chloro-2-{8-methoxy-3-[2-(4-methyl-piperazin-1-yl)-2-oxo-ethyl]-2,3,4,5-tetrahydro-1H-benzo[d]azepin-7-ylamino}-pyrimidin-4-ylamino)-N,N-dimethyl-benzenesulfonamide] | – | – | – | – | IC50 [1, 5]: < 100 nM; IC50 [2, 6]: > 10000 nM
3 | COCCN1CCc2ccc(Nc3ncc(Cl)c(N[C@@H]4CCCC[C@H]4O)n3)cc2CC1 (relative stereo) [Example 318, trans-2-{5-Chloro-2-[3-(2-methoxy-ethyl)-2,3,4,5-tetrahydro-1H-benzo[d]azepin-7-ylamino]-pyrimidin-4-ylamino}-cyclohexanol] | 1000 to 10000 nM | > 10000 nM | – | – | –
4 | (1S,2S,4R)-3-{5-Chloro-2-[3-(2-dimethylamino-acetylamino)-1-ethyl-6-methoxy-2-oxo-2,3,4,5-tetrahydro-1H-benzo[b]azepin-7-ylamino]-pyrimidin-4-ylamino}-bicyclo[2.2.1]hept-5-ene-2-carboxylic acid amide [Example 1353] | – | – | < 100 nM | > 10000 nM | –
5 | COCCNC1CCc2ccc(Nc3ncc(Cl)c(Nc4ccccc4S(=O)(=O)N4CCC(O)C4)n3)c(OC)c2CC1 (centres unmarked) [Example 695, 1-(2-{5-Chloro-2-[1-methoxy-7-(2-methoxy-ethylamino)-6,7,8,9-tetrahydro-5H-benzocyclohepten-2-ylamino]-pyrimidin-4-ylamino}-benzenesulfonyl)-pyrrolidin-3-ol] | – | – | – | – | IC50 [1, 5]: < 100 nM; IC50 [2, 6]: 1000 to 10000 nM
6 | CNC(=O)CN1CCc2cc(Nc3ncc(Cl)c(Nc4ccc(N5CCN(C)CC5)c(C)c4)n3)c(OC)cc2CC1 [Example 798, 2-(7-{5-Chloro-4-[3-methyl-4-(4-methyl-piperazin-1-yl)-phenylamino]-pyrimidin-2-ylamino}-8-methoxy-1,2,4,5-tetrahydro-benzo[d]azepin-3-yl)-N-methyl-acetamide] | – | – | – | – | IC50 [1, 5]: < 100 nM; IC50 [2, 6]: > 10000 nM
7 | CNC(=O)c1ccccc1Nc1nc(Nc2ccc3c(c2)CCN(CC(F)(F)F)CC3)ncc1Cl [Example 41, 2-{5-Chloro-2-[3-(2,2,2-trifluoro-ethyl)-2,3,4,5-tetrahydro-1H-benzo[d]azepin-7-ylamino]-pyrimidin-4-ylamino}-N-methyl-benzamide] | < 100 nM | < 100 nM | – | – | –
8 | COc1cc2c(cc1Nc1ncc(Cl)c(N[C@@H]3CCCC[C@H]3NS(C)(=O)=O)n1)CCN(CCNC(C)=O)CC2 [Example 256, N-(2-{7-[5-Chloro-4-((1R,2R)-2-methanesulfonylamino-cyclohexylamino)-pyrimidin-2-ylamino]-8-methoxy-1,2,4,5-tetrahydro-benzo[d]azepin-3-yl}-ethyl)-acetamide] | < 100 nM | > 10000 nM | – | – | –
9 | CCN1C(=O)CCC(C)(C)c2ccc(Nc3ncc(Cl)c(Nc4c(F)cccc4S(C)(=O)=O)n3)cc21 [Example 1259, 8-[5-Chloro-4-(2-fluoro-6-methanesulfonyl-phenylamino)-pyrimidin-2-ylamino]-1-ethyl-5,5-dimethyl-1,3,4,5-tetrahydro-1-benzazepin-2-one] | – | – | 100 to 1000 nM | 1000 to 10000 nM | –
10 | C#CCNC(=O)c1cccc(F)c1Nc1nc(Nc2ccc3c(c2)NC(=O)C(NC(=O)COC)CC3(C)C)ncc1Cl (centres unmarked) [Example 1293, 2-{5-Chloro-2-[3-(2-methoxy-acetylamino)-5,5-dimethyl-2-oxo-2,3,4,5-tetrahydro-1H-1-benzazepin-8-ylamino]-pyrimidin-4-ylamino}-3-fluoro-N-prop-2-ynyl-benzamide] | – | – | < 100 nM | < 100 nM | –
11 | COc1cc2c(cc1Nc1ncc(Cl)c(Nc3ccccc3S(=O)(=O)C(C)C)n1)CCC(N1CCOCC1)CC2 (centres unmarked) [Example 1050, 5-Chloro-N*2*-(3-methoxy-7-morpholin-4-yl-6,7,8,9-tetrahydro-5H-benzocyclohepten-2-yl)-N*4*-[2-(propane-2-sulfonyl)-phenyl]-pyrimidine-2,4-diamine] | – | – | < 100 nM | > 10000 nM | –
12 | COc1cc(N2CCOCC2)ccc1Nc1nc(Nc2ccc3c(c2)CCN(S(C)(=O)=O)CC3)ncc1Cl [Example 320, 5-Chloro-N*2*-(3-methanesulfonyl-2,3,4,5-tetrahydro-1H-benzo[d]azepin-7-yl]-N*4*-(2-methoxy-4-morpholin-4-yl-phenyl)-pyrimidine-2,4-diamine] | < 100 nM | 1000 to 10000 nM | – | – | –
13 | CC1(C)CCCOc2c(Nc3ncc(Cl)c(Nc4ccccc4OCC#N)n3)cccc21 [Example 880, {2-[5-Chloro-2-(5,5-dimethyl-2,3,4,5-tetrahydro-benzo[b]oxepin-9-ylamino)-pyrimidin-4-ylamino]-phenoxy}-acetonitrile] | – | – | – | – | IC50 [1, 5]: 1000 to 10000 nM; IC50 [2, 6]: > 10000 nM
14 | CCOC(=O)N1CCCOc2cc(Nc3ncc(Cl)c(Nc4ccccc4C(=O)NC)n3)ccc21 [Example 1419, 3-[5-Chloro-4-(2-methylcarbamoyl-phenylamino)-pyrimidin-2-ylamino]-7,8-dihydro-6H-5-oxa-9-aza-benzocycloheptene-9-carboxylic acid ethyl ester] | – | – | < 100 nM | < 100 nM | –
15 | COc1c(Nc2ncc(Cl)c(N[C@H]3[C@@H](C(N)=O)[C@@H]4C=C[C@H]3C4)n2)ccc2c1CCC(NCCO)CC2 (single isomer, unassigned) [Example 696] | – | – | – | – | IC50 [1, 5]: < 100 nM; IC50 [2, 6]: > 10000 nM
16 | CNC(=O)c1ccccc1Nc1nc(Nc2ccc(OC)c3c2NC(=O)CCC3)ncc1Cl [Example 18, 2-[5-Chloro-2-(6-methoxy-2-oxo-2,3,4,5-tetrahydro-1H-benzo[b]azepin-9-ylamino)-pyrimidin-4-ylamino]-N-methyl-benzamide] | < 100 nM | 1000 to 10000 nM | – | – | –
17 | CNC(=O)c1cccc(F)c1Nc1nc(Nc2ccc3c(c2)NC(=O)CN(S(C)(=O)=O)C3)ncc1Cl [Example 1860, 2-[5-Chloro-2-(4-methanesulfonyl-2-oxo-2,3,4,5-tetrahydro-1H-benzo[e][1,4]diazepin-8-ylamino)pyrimidin-4-ylamino]-3-fluoro-N-methyl-benzamide] | – | – | – | – | IC50 [1, 9]: < 100 nM; IC50 [2, 10]: < 100 nM
18 | COCCN1CCc2ccc(Nc3ncc(Cl)c(Nc4ccccc4C(=O)NCC(C)C)n3)cc2CC1 [Example 1396, {5-Chloro-2-[3-(2-methoxy-ethyl)-2,3,4,5-tetrahydro-1H-benzo[d]azepin-7-ylamino]-pyrimidin-4-ylamino}-N-isobutyl-benzamide] | – | – | < 100 nM | 100 to 1000 nM | –
19 | CCOC(=O)N1CC(=O)Nc2cc(Nc3ncc(Cl)c(Nc4c(F)cccc4C(=O)NC)n3)ccc2C1 [Example 1869, 8-[5-Chloro-4-(2-fluoro-6-methylcarbamoyl-phenylamino)-pyrimidin-2-ylamino]-2-oxo-1,2,3,5-tetrahydro-benzo[e][1,4]diazepine-4-carboxylic acid ethyl ester] | – | – | – | – | IC50 [1, 9]: 1000 to 10000 nM; IC50 [2, 10]: 100 to 1000 nM

Reference: patent publication US8148391B2 (Cephalon, Inc., priority 2006, dated 2012)
